This is an account of results in patent US20150307491A1, “SUBSTITUTED PYRIDOPYRAZINES AS SYK INHIBITORS” (HUTCHISON MEDIPHARMA LIMITED, priority 2012, published 2015).

For one assay, the target named is Syk kinase (Homo sapiens, UniProt P43405). Put plainly: SYK enzymatic assay. As to conditions: Tyr 2 Peptide, 8 concentrations 1 μM down to 0.0003 μM. It is filed as biochemical. Here is the method: Syk kinase assay are performed in vitro using Kit-Tyr 2 Peptide (Invitrogen, Cat. No. PV3191) and in a 384-well assay plate. […] The 384-well assay plate (Corning, Cat. No. 3575) is mixed and incubated at room temperature for 1 hour. 10 μL of the Development Solution (prepared by diluting Development Reagent A (Cat. No. PV3297) to 1/32 with Development Buffer (Cat. No. PV3127)) is then added to each well, mixed and incubated at room temperature for another 1 hour. The reactions are then stopped by adding 10 μL of the Stop Reagent (Invitrogen, Cat. No. PV3094), and the plate is read with Wallac 1420 VICTOR^3 Multilabel Counter (PerkinElmer™) at 445 nm and 520 nm fluorescence. All compounds are tested at 8 concentrations (1 μM down to 0.0003 μM) using a 1:3 serial dilution scheme.

Another assay relates to RBL-2H3 cells. Put plainly: IgE-induced Beta-hexosaminidase secretion in RBL-2H3 cells. As to conditions: Rattus norvegicus; RBL-2H3 cells sensitized with SPE-7, stimulated with DNP-BSA. The assay is classed as cell-based. Here is the method: For the determination of IgE-induced Beta-hexosaminidase secretion, RBL-2H3 cells (SIBS) are seeded in 96 well plates at 4×10^4 cells per well and incubated in MEM media with 15% FBS and Glutamine ([…]) for 4 hours and sensitized with 0.5 ug/ml of SPE-7 overnight. Cells are washed 3 times with Tyrode's buffer and incubated in the presence or absence of various concentrations of the testing compound for 20 min at 37° C., 5% CO2. Cells are stimulated by adding 10 μL of DNP-BSA solution (150 ng/mL) to each well and incubating for 45 minutes at 37° C., 5% CO2. Then, 45 μL of the supernatant is taken and incubated with 100 μL of 1 mM 4-Nitrophenyl N-acetyl-β-D-glucosaminide (Sigma, Cat. No. N9376), which is diluted in 0.05 M citrate buffer (pH 4.5), for 1.5 hr at 37° C. The reactions are quenched by adding 185 μL of 0.05 M sodium carbonate buffer (pH 10.0). Plates are read at 405 nm on Multiskan (MK 3).

The next assay deals with T1, Flt3 kinase (Homo sapiens, UniProt P36888).
T1 construct: purchased Invitrogen PV3182
T1 sequence (P36888 564-993 limits assumed): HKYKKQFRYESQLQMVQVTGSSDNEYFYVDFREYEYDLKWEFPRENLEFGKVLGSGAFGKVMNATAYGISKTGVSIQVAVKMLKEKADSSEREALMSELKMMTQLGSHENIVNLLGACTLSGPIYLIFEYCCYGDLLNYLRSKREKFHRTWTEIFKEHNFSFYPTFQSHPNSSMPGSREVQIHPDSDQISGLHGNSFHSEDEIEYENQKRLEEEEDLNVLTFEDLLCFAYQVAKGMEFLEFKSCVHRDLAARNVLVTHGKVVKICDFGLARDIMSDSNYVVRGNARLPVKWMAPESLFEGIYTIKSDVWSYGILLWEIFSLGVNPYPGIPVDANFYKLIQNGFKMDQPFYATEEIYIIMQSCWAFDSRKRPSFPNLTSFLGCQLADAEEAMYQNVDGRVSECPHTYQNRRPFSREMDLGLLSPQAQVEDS
As to the kind of experiment: Z-lyte kinase assay of Flt-3. It is filed as biochemical. As to conditions: Z-LYTE Tyr 2 peptide; final concentrations 3 to 0.0014 μM. Here is the method: Z-lyte kinase assay of Flt-3:
Dilute 5× Kinase Buffer to 1,33× with ddH2O
Serially dilute the test compounds to 4 folds of the concentrations desired, keeping the DMSO concentration at 8%. The final concentrations were 3, 1, 0.33, 0.11, 0.037, 0.012, 0.004, 0.0014 μM, and the final concentration of DMSO was 2%,
Prepare Kinase/Peptide Mixture by diluting the kinase to 0.12 μg/mL and the Z-LYTE™ Tyr 2 peptide to 4 μM in 1.33× Kinase Buffer. Mix gently by pipetting. 4) Phcspho-peptide Solution (PP solution)
Add 0.4 μL of Z-LYTE™ Tyr 2 Phospho-peptide to 99.6 μL of 1.33× Kinase Buffer.
Prepare ATP Solution by diluting the 10 mM of ATP in 1.33× Kinase Buffer to 1.88 mM.
Dilute Development Reagent A with Development Buffer as 1:64.
1) Kinase reaction (10 μL of Volume) • a. Add 2.5 μL of 4× test Cpds to each well except C1, C2, C3 wells
Add 2.5 μL of 8% DMSO to C1, C2, C3 wells • b. Put the 384-plate on ice • c. Add 5 μL of P/K mixture to each test Cpd wells and C1, C2 wells • d. Add 5 μL of PP Solution to C3 well • e. Add 2.5 μL of 1,33× kinase buffer to C1 and C3 wells • f. Add 2.5 μL of 4×ATP Solution to each test Cpd wells and C2 well, respectively.
Shake the plate for 30 Sec and centrifuge (1500 rpm, 1 min) • g. Seal the plate to protect from the light and incubate the plate for 1 hour at RT (25-30° C.) 2) Development reaction • a. Add 5 μL of the Development solution to all wells • b. Shake the plate for 30 Sec and centrifuge (1500 rpm, 1 min) • c. Seal the plate to protect from the light and incubate the plate for 1 hour at RT (25-30° C.) 3) Stop and read • a. Add 5 μL of the Stop reagent to all wells • b. Shake the plate for 30 Sec and centrifuge (1500 rpm, 1 min) • c. Measure the value of Coumarin (Ex400 nm, Em445 nm) and fluorescein (Ex400 nm, Em520 nm), respectively. 4. Data analysis
Emission Ratio (ER) Coumarin Emission (445 nm)/Fluorescein Emission (520 nm)
inhibition ratio (IR)=1−% Photest Cpd/% PhoC2%
IC50 Value: determined with add-in software for Microsoft Excel, XLfit™ (version 2.0) from ID Business Solutions (Guildford: UK)

Molecules are shown by their SMILES.

In the case of `CN(C)c1ccc(-c2cc3nccnc3c(OC[C@@H]3CN(C(=O)CC4CC4)CCO3)n2)cc1` [Compound 70], the IC50 was in the range of 1 to 100 nM on Syk kinase and 100 to 1000 nM with RBL-2H3 cells.
Turning to `CN(C)c1ccc(-c2cc3nccnc3c(OC[C@@H]3CN(C(=O)C(F)F)CCO3)n2)cc1` [Compound 100], the IC50 was greater than 3000 nM on Flt3 kinase and 1 to 100 nM in the assay on RBL-2H3 cells.
`O=C(C(F)F)N1CCO[C@H](COc2nc(-c3ccc(C4CCOCC4)cc3)cc3nccnc23)C1` [Compound 9]: the figures for the IC50 against Syk kinase and with RBL-2H3 cells were 1 to 100 nM and 100 to 1000 nM, respectively.
For `O=C(C(F)F)N1CCO[C@H](COc2nc(-c3ccc(N4CCOCC4)c(F)c3)cc3nccnc23)C1` [Compound 15], in that order: 1 to 100 nM and 100 to 1000 nM.
Consider `CN(C)c1ccc(-c2cc3nccnc3c(OC[C@@H]3CN(S(C)(=O)=O)CCO3)n2)cc1` [Compound 94], for which the IC50 at Flt3 kinase was 2010 nM; with RBL-2H3 cells, 1 to 100 nM.
For `CN(C)c1ccc(-c2cc3nccnc3c(OC[C@@H]3CN(C(=O)[C@H]4CCOC4)CCO3)n2)cc1` [Compound 95], in that order: 2820 nM and 1 to 100 nM.
Regarding `CS(=O)(=O)N1CCO[C@H](COc2nc(-c3ccc4c(c3)OCCO4)cc3nccnc23)C1` [Compound 109], the 50% inhibitory concentration (IC50) against Syk kinase fell in the range of 1 to 100 nM; in the assay with RBL-2H3 cells, 100 to 1000 nM.
Regarding `CC(=O)N1CCO[C@H](COc2nc(-c3ccc(N(C)C)cc3)cc3nccnc23)C1` [Compound 67], the IC50 against Flt3 kinase is 2520 nM; with RBL-2H3 cells, 1 to 100 nM.
`CN(C)c1ccc(-c2cc3nccnc3c(OC[C@@H]3CN(C(=O)[C@H]4CC[C@H](O)CC4)CCO3)n2)cc1` [Compound 75] displayed an IC50 on Syk kinase of 1 to 100 nM.
Regarding `CN(C)c1ccc(-c2cc3nccnc3c(OC[C@@H]3CN(C(=O)C(F)F)CCO3)n2)cc1F` [Compound 32], the IC50 on Flt3 kinase was greater than 3000 nM; in the assay on RBL-2H3 cells it was 1 to 100 nM.
For `CN(C)c1ccc(-c2cc3nccnc3c(OC[C@@H]3CN(C(=O)C4CC4)CCO3)n2)cc1` [Compound 69], in that order: greater than 3000 nM and 1 to 100 nM.
On to `CN(C)c1ccc(-c2cc3nccnc3c(OC[C@@H]3CN(S(=O)(=O)C4CC4)CCO3)n2)cc1` [Compound 90], for which the IC50 was greater than 3000 nM on Flt3 kinase and 1 to 100 nM in the assay with RBL-2H3 cells.
On to `CCS(=O)(=O)N1CCN(c2ccc(-c3cc4nccnc4c(OC[C@@H]4CN(C(C)=O)CCO4)n3)cc2)CC1` [Compound 25], for which the IC50 in the assay on RBL-2H3 cells fell in the range of 100 to 1000 nM.
Still for that read-out and setting: next, `CS(=O)(=O)N1CCC(c2ccc(-c3cc4nccnc4c(O[C@@H]4CCOC4)n3)cc2)CC1` [Compound 124]: 1 to 100 nM; `COc1ccc(-c2cc3nccnc3c(OC[C@@H]3CN(S(C)(=O)=O)CCO3)n2)cc1` [Compound 38]: 100 to 1000 nM; `CN1CCN(c2ccc(-c3cc4nccnc4c(O[C@@H]4CCOC4)n3)cc2)CC1` [Compound 125]: 1 to 100 nM.
Regarding `COCCN1CCC(c2ccc(-c3cc4nccnc4c(OC[C@@H]4CN(S(C)(=O)=O)CCO4)n3)cc2)CC1` [Compound 59], the IC50 in the assay with RBL-2H3 cells was in the range of 100 to 1000 nM.
As for `Cn1ncc2cc(-c3cc4nccnc4c(OC[C@@H]4CN(S(C)(=O)=O)CCO4)n3)ccc21` [Compound 105], the IC50 in the assay on RBL-2H3 cells was 1 to 100 nM.
In the case of `CN1CCC(c2ccc(-c3cc4nccnc4c(OC[C@@H]4CN(S(C)(=O)=O)CCO4)n3)cc2)CC1` [Compound 8], the IC50 in the assay with RBL-2H3 cells was in the range of 100 to 1000 nM.
For `COC1CCN(c2ccc(-c3cc4nccnc4c(OC[C@@H]4CN(S(C)(=O)=O)CCO4)n3)cc2)CC1` [Compound 31], in the assay with RBL-2H3 cells, the 50% inhibitory concentration (IC50) is 1 to 100 nM.
As to `CN(C)c1ccc(-c2cc3nccnc3c(OC[C@@H]3CN(S(=O)(=O)c4cccnc4)CCO3)n2)cc1` [Compound 92], in the assay with RBL-2H3 cells, the half-maximal inhibitory concentration (IC50) was in the range of 1 to 100 nM.
Still for that read-out and setting: next, `CCS(=O)(=O)N1CCO[C@H](COc2nc(-c3ccc(N(C)C)cc3)cc3nccnc23)C1` [Compound 88]: 1 to 100 nM.
On to `CC(C)S(=O)(=O)N1CCO[C@H](COc2nc(-c3ccc(N(C)C)cc3)cc3nccnc23)C1` [Compound 89], for which the IC50 at Syk kinase is 1 to 100 nM; in the assay with RBL-2H3 cells, 100 to 1000 nM.
On to `COc1cc(-c2cc3nccnc3c(OC[C@@H]3CN(S(C)(=O)=O)CCO3)n2)ccc1OCCN(C)C` [Compound 126], for which, in the assay on RBL-2H3 cells, the IC50 fell in the range of 100 to 1000 nM.
As for `CNC(=O)CS(=O)(=O)N1CCO[C@H](COc2nc(-c3ccc(N(C)C)cc3)cc3nccnc23)C1` [Compound 99], in the assay with RBL-2H3 cells, the IC50 was 100 to 1000 nM.
On to `CN(C)c1ccc(-c2cc3nccnc3c(OC[C@@H]3CN(S(=O)(=O)CCN4CC[C@H](O)C4)CCO3)n2)cc1` [Compound 103], for which the IC50 in the assay with RBL-2H3 cells lay within 100 to 1000 nM.
The same measure, in the same setting: next, `CNc1ccc(-c2cc3nccnc3c(OC[C@@H]3CN(C(=O)[C@H]4CCCO4)CCO3)n2)cc1` [Compound 51]: 100 to 1000 nM; `CS(=O)(=O)N1CCO[C@H](COc2nc(-c3ccc(N4CCNCC4)cc3)cc3nccnc23)C1` [Compound 14]: 100 to 1000 nM.
On the same count and under the same terms, next, `CN(C)c1ccc(-c2cc3nccnc3c(OC3CCCOC3)n2)cc1` (centres unmarked) [Compound 127]: 1 to 100 nM; `CN(C)c1ccc(-c2cc3nccnc3c(OC[C@@H]3CN(C(=O)[C@@H]4CCOC4)CCO3)n2)cc1` [Compound 72]: 100 to 1000 nM.
`CS(=O)(=O)N1CCO[C@H](COc2nc(-c3ccc(N4CCC(F)(F)CC4)cc3)cc3nccnc23)C1` [Compound 20]: in the assay on RBL-2H3 cells, the IC50 fell in the range of 1 to 100 nM.
In the case of `CN1CCN(c2ccc(-c3cc4nccnc4c(OC[C@@H]4CN(C(=O)C(F)F)CCO4)n3)cc2)CC1` [Compound 16], the IC50 in the assay with RBL-2H3 cells was in the range of 1 to 100 nM.

Broadly, the IC50 is the concentration that gives 50% inhibition.
